In ChEMBL document CHEMBL3774347, “Docking and Linking of Fragments To Discover Jumonji Histone Demethylase Inhibitors” (J Med Chem, 2016):

Legend:
[1] = molecular target: Hypoxia-inducible factor 1-alpha inhibitor (Homo sapiens, UniProt Q9NWT6); assay: Inhibition of N-terminal His6-tagged full-length FIH (unknown origin) expressed in Escherichia coli Rosetta 2(DE3)pLysS using SMDESGLPQLTSYDCEVNAPIQGSRNLLQGEELLRALDQVN peptide/100 uM alpha-ketoglutarate as substrate/cofactor incubated for 45 mins by MALDI assay
[2] = molecular target: T1, Lysine-specific demethylase 2A (Homo sapiens, UniProt Q9Y2K7); assay: Inhibition of KDM2A (unknown origin) expressed in Escherichia coli using Biotin H3 (28 to 48 residues) Me2 KDM2A Cognate Ligande/10 uM alpha-ketoglutarate as substrate/cofactor preincubated for 15 mins followed by substrate addition measured after 30 mins by alphascreen assay
T1 sequence (Q9Y2K7 whole entry): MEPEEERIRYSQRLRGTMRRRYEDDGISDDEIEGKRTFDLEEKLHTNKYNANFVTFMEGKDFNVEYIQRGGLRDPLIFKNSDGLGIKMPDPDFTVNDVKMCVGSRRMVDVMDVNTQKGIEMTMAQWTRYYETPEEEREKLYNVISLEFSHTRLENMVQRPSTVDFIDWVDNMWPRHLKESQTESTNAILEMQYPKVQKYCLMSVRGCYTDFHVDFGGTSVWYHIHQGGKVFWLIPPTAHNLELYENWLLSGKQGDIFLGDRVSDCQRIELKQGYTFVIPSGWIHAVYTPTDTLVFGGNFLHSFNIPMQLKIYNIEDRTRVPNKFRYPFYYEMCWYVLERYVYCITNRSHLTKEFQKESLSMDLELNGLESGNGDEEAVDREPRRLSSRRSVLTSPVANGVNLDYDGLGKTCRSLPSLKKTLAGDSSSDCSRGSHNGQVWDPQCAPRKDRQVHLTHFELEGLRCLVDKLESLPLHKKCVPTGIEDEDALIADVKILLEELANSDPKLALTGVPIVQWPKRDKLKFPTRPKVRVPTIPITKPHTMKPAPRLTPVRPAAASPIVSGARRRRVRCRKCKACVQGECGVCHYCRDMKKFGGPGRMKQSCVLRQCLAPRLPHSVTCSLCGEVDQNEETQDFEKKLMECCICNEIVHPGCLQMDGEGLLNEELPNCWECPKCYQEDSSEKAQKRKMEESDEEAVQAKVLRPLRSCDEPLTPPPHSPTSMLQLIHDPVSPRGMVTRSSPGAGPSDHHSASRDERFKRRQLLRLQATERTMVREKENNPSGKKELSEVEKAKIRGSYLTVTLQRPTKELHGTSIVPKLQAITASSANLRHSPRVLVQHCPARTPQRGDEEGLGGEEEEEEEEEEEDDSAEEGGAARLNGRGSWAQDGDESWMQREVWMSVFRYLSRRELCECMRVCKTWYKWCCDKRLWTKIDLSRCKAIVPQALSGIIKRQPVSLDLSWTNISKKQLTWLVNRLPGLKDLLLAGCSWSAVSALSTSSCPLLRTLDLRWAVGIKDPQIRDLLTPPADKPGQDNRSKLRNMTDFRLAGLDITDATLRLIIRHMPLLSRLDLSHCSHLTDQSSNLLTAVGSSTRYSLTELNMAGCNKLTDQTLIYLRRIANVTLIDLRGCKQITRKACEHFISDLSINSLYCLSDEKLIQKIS

[3] = molecular target: T2, Lysine-specific demethylase 3A (Homo sapiens, UniProt Q9Y4C1); assay: Inhibition of KDM3A (unknown origin) expressed in Escherichia coli using H3 (1 to 21 residues) K9Me2-GGK-Biotin KDM3A Cognate Ligand/10 uM alpha-ketoglutarate as substrate/cofactor preincubated for 5 mins followed by substrate addition measured after 20 mins by alphascreen assay
T2 sequence (Q9Y4C1 whole entry): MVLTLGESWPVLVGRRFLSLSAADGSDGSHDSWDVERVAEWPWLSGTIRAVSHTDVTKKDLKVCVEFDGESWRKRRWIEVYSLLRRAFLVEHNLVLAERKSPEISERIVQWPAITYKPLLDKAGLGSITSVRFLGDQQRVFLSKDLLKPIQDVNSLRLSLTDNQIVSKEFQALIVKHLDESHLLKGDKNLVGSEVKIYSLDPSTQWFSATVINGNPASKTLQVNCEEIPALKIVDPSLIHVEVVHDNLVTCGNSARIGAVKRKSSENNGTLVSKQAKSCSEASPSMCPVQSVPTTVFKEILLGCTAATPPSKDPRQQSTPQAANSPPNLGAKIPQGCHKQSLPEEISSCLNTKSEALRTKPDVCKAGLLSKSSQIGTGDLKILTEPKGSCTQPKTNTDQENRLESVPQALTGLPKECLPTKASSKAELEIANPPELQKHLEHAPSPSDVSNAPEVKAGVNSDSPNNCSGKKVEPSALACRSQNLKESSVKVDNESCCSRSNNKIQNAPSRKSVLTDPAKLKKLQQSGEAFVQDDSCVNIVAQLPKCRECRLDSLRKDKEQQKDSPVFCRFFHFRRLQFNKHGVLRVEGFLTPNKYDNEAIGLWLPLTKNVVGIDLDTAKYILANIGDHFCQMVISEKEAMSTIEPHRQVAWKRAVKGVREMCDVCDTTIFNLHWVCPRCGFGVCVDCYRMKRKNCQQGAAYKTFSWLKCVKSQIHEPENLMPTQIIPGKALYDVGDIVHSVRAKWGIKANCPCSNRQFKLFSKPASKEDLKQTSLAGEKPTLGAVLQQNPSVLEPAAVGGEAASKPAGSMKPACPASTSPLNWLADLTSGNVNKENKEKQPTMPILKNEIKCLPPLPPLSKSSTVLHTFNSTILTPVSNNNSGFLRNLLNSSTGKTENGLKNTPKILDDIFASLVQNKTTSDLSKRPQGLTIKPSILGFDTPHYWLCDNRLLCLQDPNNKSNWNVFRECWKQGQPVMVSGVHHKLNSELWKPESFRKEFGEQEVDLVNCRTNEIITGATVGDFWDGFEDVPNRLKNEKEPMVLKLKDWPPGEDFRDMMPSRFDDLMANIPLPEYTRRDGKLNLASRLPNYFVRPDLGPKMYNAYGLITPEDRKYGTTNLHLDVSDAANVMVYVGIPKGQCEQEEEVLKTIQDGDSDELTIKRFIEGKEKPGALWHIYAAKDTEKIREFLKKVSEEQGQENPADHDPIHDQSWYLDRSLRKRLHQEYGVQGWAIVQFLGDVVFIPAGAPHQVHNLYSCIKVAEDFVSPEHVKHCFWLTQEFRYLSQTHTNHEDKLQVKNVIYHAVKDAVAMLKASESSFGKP

[4] = molecular target: Lysine-specific demethylase 6B (Homo sapiens, UniProt O15054); assay: Inhibition of KDM6B (unknown origin) expressed in Escherichia coli using H3 (21 to 44 residues) K27Me3-GGK-Biotin JMJD3 Cognate Ligand/10 uM alpha-ketoglutarate as substrate/cofactor preincubated for 5 mins followed by substrate addition measured after 5 mins by alphascreen assay
[5] = molecular target: Lysine-specific demethylase 5B (Homo sapiens, UniProt Q9UGL1); assay: Inhibition of KDM5B (unknown origin) expressed in Escherichia coli using H3 (1 to 21 residues) K4Me3-GGK-Biotin KDM5B Cognate Ligand/10 uM alpha-ketoglutarate as substrate/cofactor preincubated for 5 mins followed by substrate addition measured after 20 mins by alphascreen assay
Sequence of Lysine-specific demethylase 5B (Q9UGL1 whole entry, the tested form may be a part): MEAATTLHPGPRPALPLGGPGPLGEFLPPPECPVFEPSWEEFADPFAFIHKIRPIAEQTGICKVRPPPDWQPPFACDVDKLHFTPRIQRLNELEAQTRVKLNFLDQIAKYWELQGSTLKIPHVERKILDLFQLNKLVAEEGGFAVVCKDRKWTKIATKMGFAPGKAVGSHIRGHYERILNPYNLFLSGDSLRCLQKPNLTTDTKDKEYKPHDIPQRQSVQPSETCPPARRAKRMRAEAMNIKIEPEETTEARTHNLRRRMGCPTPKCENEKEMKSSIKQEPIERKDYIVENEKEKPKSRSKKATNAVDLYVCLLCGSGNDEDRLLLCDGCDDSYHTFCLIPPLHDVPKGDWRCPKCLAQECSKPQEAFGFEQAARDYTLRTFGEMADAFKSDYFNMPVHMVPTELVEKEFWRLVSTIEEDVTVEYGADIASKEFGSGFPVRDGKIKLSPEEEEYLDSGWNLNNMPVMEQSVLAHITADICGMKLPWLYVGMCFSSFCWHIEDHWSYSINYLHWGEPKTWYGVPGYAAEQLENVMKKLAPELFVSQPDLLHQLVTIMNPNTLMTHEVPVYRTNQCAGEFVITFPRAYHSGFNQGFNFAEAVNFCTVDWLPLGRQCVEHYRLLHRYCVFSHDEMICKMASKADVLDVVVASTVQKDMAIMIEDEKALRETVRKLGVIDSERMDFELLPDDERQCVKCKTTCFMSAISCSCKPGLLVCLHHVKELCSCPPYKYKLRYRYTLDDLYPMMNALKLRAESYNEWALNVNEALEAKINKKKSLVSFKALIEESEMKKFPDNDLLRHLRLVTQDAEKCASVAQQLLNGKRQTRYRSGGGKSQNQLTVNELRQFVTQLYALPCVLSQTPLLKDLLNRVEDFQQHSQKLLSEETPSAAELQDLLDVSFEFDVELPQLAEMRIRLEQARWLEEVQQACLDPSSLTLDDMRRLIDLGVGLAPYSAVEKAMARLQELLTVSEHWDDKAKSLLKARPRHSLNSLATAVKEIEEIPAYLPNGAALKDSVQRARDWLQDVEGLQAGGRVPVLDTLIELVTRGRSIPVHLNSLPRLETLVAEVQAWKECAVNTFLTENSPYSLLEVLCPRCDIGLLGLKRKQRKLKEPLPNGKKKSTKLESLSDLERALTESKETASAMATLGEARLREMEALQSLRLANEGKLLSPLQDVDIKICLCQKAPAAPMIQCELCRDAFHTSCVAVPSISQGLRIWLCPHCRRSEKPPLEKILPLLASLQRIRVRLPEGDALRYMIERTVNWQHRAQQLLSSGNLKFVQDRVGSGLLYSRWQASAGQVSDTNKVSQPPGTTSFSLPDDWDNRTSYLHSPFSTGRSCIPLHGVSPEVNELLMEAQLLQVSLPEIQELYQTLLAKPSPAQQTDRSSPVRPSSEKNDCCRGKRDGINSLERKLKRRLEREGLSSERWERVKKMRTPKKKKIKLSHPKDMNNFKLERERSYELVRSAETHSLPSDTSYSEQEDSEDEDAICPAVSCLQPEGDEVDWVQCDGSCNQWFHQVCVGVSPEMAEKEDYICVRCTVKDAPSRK

Sequence of Lysine-specific demethylase 6B (O15054 whole entry, the tested form may be a part): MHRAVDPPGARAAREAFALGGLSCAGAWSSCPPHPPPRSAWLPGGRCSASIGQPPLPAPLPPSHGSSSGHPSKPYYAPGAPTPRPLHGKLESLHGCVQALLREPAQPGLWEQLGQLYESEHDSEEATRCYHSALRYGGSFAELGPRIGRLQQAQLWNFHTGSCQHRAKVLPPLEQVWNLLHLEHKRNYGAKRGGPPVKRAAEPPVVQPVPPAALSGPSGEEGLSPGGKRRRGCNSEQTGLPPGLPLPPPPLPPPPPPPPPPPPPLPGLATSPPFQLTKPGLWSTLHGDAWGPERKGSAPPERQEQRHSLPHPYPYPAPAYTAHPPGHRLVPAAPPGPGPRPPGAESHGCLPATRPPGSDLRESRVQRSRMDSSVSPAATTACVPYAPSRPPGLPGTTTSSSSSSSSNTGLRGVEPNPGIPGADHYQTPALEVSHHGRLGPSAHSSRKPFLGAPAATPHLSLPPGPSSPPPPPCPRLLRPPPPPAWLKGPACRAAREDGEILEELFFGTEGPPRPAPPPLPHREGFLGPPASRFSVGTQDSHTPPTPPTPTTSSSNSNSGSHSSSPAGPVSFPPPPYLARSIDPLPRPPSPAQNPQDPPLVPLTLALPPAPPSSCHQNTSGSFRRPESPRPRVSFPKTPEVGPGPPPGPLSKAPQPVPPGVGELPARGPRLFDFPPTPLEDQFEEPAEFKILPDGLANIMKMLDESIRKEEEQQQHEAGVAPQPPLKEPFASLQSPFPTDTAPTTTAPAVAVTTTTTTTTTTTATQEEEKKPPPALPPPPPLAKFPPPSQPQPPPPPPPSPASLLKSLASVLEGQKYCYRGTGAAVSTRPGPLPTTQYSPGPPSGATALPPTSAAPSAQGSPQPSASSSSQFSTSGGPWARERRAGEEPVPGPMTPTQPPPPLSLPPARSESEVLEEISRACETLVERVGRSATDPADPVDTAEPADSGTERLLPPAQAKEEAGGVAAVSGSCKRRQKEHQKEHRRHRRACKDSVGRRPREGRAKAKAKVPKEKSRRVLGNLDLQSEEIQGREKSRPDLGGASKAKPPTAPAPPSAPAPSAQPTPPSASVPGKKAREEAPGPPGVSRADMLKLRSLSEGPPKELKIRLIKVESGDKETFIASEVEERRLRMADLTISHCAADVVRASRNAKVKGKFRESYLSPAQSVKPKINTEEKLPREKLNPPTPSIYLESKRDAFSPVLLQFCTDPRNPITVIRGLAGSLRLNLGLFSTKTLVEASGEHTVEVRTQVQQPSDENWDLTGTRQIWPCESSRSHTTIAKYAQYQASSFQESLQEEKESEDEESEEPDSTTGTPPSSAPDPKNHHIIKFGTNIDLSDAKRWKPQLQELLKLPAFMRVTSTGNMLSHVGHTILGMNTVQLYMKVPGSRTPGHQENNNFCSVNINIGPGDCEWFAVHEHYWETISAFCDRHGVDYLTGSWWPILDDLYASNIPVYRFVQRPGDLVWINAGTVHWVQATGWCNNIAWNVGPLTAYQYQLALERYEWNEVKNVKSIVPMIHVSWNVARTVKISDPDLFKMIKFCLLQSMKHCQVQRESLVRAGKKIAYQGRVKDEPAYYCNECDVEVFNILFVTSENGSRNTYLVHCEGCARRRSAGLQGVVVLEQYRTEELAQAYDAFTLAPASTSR
Sequence of Hypoxia-inducible factor 1-alpha inhibitor (Q9NWT6 whole entry, the tested form may be a part): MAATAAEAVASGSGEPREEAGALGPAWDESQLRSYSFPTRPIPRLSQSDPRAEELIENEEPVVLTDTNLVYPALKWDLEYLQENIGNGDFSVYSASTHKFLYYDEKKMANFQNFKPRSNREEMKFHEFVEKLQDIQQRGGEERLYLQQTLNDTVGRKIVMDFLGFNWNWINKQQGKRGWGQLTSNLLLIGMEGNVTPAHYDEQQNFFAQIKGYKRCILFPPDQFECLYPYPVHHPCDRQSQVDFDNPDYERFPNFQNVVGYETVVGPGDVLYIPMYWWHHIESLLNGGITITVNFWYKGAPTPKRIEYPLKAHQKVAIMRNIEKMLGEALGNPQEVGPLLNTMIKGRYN

Row | Compound | IC50 [1] [µM] | IC50 [2] [µM] | IC50 [3] [µM] | IC50 [4] [µM] | IC50 [5] [µM]
1 | COCC(=O)Nc1ccc(O)c(-c2cc(C(=O)O)ccn2)c1 | > 500 | 91 | 11 | > 100 | 12
2 | COc1cccc(CC(=O)Nc2ccc(O)c(-c3cc(C(=O)O)ccn3)c2)c1 | > 500 | 89 | 9 | 16 | 22
3 | O=C(O)c1ccnc(-c2cc(NC(=O)c3ccc(O)cc3)ccc2O)c1 | > 500 | 89 | 2.3 | 27 | 19
4 | CC(=O)Nc1ccc(O)c(-c2cc(C(=O)O)ccn2)c1 | > 500 | > 100 | 33 | > 100 | 72
5 | Cc1cc(C(=O)Nc2ccc(O)c(-c3cc(C(=O)O)ccn3)c2)no1 | 473 | 76 | 5.7 | 31 | 2.7
